Assay: gradient 5% acetonitrile 3 min, to 50% in 2 min, to 85% in 15 min, held 3 min, 100 µL/min
Conditions: column: Zorbax Extend-C18 2.1 x 50 mm; eluents: water / acetonitrile, 0.1% formic acid
In short: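 In both positive and negative ionization mode, a quadrupole time-of-flight mass spectrometer coupled to HPLC analyzed pure standards run in mixtures of ~100 molecules. The Zorbax Extend-C18 column (2.1 × 50 mm, 1.8 μm) was operated at 100 μL/min with water and acetonitrile, each containing 0.1% formic acid. The dead volume was 40 μL and the dwell volume 900 μL. Retention time came from adduct peaks that were computationally picked and individually inspected by hand.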

First: Cn1c(=O)n(C)c2cc(N3CCOCC3)c(NC(=O)COc3ccc(Cl)cc3)cc21
Second: O=C1COc2ccc(Cl)cc2N1Cc1nc(-c2ccc(N3CCOCC3)cc2)no1
The RP-LC retention time of the first is lower: 899 s for the first, 1000 s for the second.

Compared with CC(=O)N1CCc2cc(-c3ccc(C(=O)NCCN4CCCCC4)cc3)ccc21, Cc1cccc(NC(=O)C(=O)NCCN2CCN(c3ccc(F)cc3)CC2)c1C is lower in RP-LC retention time: 616 s for the first, 584 s for the second.

First: CCN(CC)c1nc2cc(C(=O)NCc3ccc(C)o3)ccc2c(=O)n1-c1ccccc1
Second: Cc1ccc(-c2c(C(=O)NCc3ccco3)nc3ccccn23)cc1
The RP-LC retention time of the first is lower: 1020 s for the first, 1150 s for the second.

First: CC(=O)c1ccc(NC(=O)C(C)Oc2cc(-c3ccccc3)c3c(C)nn(C)c3n2)cc1 (stereo unspecified)
Second: Cc1cc(C)c2c(-n3cccc3)nn(CC(=O)Nc3ccc(C(C)C)cc3)c2n1
The RP-LC retention time of the first is lower: 990 s for the first, 1160 s for the second.

First: CC1(C)C(=O)Nc2ccc(S(=O)(=O)N3CCC(c4noc(-c5ccncc5)n4)C3)cc21 (stereo unspecified)
Second: COc1ccc(S(=O)(=O)N2CCC(c3noc(-c4cccc(F)c4)n3)CC2)cc1
The RP-LC retention time of the first is lower: 700 s for the first, 1100 s for the second.

Going from O=C(Nc1cccc(-c2cn3cccnc3n2)c1)c1ccc(Cl)cc1 to CCn1cc(-c2nc(C(=O)Nc3cccc(C)c3)cs2)c2cccnc21, the RP-LC retention time rises from 739 s to 1130 s.

First: Cc1scc2nc(C(=O)NC3CCCCC3)nc(N(C)C)c12
Second: CCc1ccc(-n2nc(CO)c(C(=O)NC3CCCC3)n2)cc1
The RP-LC retention time of the first is lower: 652 s for the first, 1120 s for the second.

Compared with COC(=O)c1c(NC(=O)c2ccc([N+](=O)[O-])o2)sc(Cc2ccc3c(c2)OCO3)c1C, CN(C)S(=O)(=O)c1ccc(-c2nnc(C(=O)NCc3ccc4c(c3)OCO4)o2)cc1 is lower in RP-LC retention time: 1130 s for the first, 814 s for the second.

Compared with COc1ccc(-c2noc3ncnc(N4CCC(C(=O)N5CCC(C(N)=O)CC5)CC4)c23)cc1, Clc1cccc(-c2noc3ncnc(N4CCN(c5ccccn5)CC4)c23)c1 is higher in RP-LC retention time: 656 s for the first, 716 s for the second.

First: COc1ccc(N2CC(c3noc(-c4ccc(F)cc4)n3)CC2=O)cc1OC (stereo unspecified)
Second: Cc1ccc(N2CC(c3noc(-c4ccc(Cl)cc4)n3)CC2=O)cc1 (stereo unspecified)
The RP-LC retention time of the first is lower: 856 s for the first, 1110 s for the second.

Going from Cc1ccc(NC(=O)c2cc(C(C)C)n3nccc3n2)cc1C to Cc1cc2nc(C(=O)Nc3cccc(C#N)c3)cc(C)n2n1, the RP-LC retention time falls from 1250 s to 901 s.

First: CC1CCN(C(=O)CCC(=O)N2CCN(c3nc4cccnc4s3)CC2)CC1
Second: COc1ccc(Cl)cc1C(=O)N1CCCN(C2CCN(CC3CC3)C2=O)CC1 (stereo unspecified)
The RP-LC retention time of the first is higher: 688 s for the first, 553 s for the second.

First: Cc1ccc2nc(CN3CCN(C(=O)Nc4ccc5c(c4)OCO5)CC3)oc2c1
Second: Cc1ccc(CN2CCN(C3CCN(C(=O)Nc4ccc5c(c4)OCCO5)CC3)C(=O)C2=O)cc1
The RP-LC retention time of the first is lower: 684 s for the first, 715 s for the second.

Compared with Nc1ccc(C(=O)C(=O)c2ccc(N)cc2)cc1, O=C(O)c1cc(-c2ccc(F)cc2)nc2ccccc12 is higher in RP-LC retention time: 730 s for the first, 884 s for the second.

Compared with Cc1sc(NC(=O)C2CCCCC2)nc1-c1ccc2c(c1)NC(=O)C(C)O2 (stereo unspecified), CCn1c(=O)c(N2CCC(NC(=O)NC3CCCCC3)CC2)nc2ccccc21 is lower in RP-LC retention time: 940 s for the first, 831 s for the second.

Going from O=S(=O)(Nc1ccccc1F)c1ccc(-c2nnc(C3CCC3)o2)o1 to Cc1cc(S(=O)(=O)Nc2cccn3cnnc23)ccc1F, the RP-LC retention time falls from 856 s to 686 s.

First: O=C(Cn1ccc2ccccc21)NCCCC(=O)Nc1cccc2cccnc12
Second: O=C(Nc1ccccc1C(F)(F)F)N1CCCC(Cn2cnc3cccnc32)C1 (stereo unspecified)
The RP-LC retention time of the first is higher: 786 s for the first, 680 s for the second.

Compared with COc1ccc(N2C(=O)C3N=NN(Cc4nc(-c5ccc6c(c5)OCO6)no4)C3C2=O)cc1 (stereo unspecified), COc1ccc(-c2noc(C3CCCN3C(=O)Nc3cccc(C)c3)n2)cc1 (stereo unspecified) is lower in RP-LC retention time: 911 s for the first, 830 s for the second.

Going from COc1ccc(OCC(=O)N2CCc3c(c(C(=O)N4CCCC(C(=O)NC5CC5)C4)nn3C)C2)cc1 (stereo unspecified) to O=C(Nc1ccccc1)C1CCCN(S(=O)(=O)c2c[nH]c(C(=O)N3CCCC3)c2)C1 (stereo unspecified), the RP-LC retention time rises from 657 s to 769 s.

Compared with CCc1nc(-c2cccc(-c3noc(COc4ccc(OC)cc4)n3)c2)cs1, Cc1ccc(OCc2nc(-c3cccc(-c4ccnn4C)c3)no2)cc1 is lower in RP-LC retention time: 1270 s for the first, 1130 s for the second.

Compared with Cc1cccc2nnc(N3CCC(C(=O)NCc4ccccc4)CC3)n12, Cc1cccc(NC(=O)N2CCC3(C2)C(=O)N(C)c2ccccc23)c1 (stereo unspecified) is higher in RP-LC retention time: 660 s for the first, 808 s for the second.

Going from O=S(=O)(c1cc(-c2cc(C(F)(F)F)on2)cs1)N1CCN(c2cccc(Cl)c2)CC1 to O=C(c1ccccc1Br)N1CCN(c2cc(-c3cccs3)[nH]n2)CC1, the RP-LC retention time falls from 1300 s to 761 s.

Going from COC(=O)c1cnc2nc(C)ccc2c1Nc1cc(OC)c(OC)c(OC)c1 to COc1ccc(C2Cn3nnc(C(=O)NCc4cc(OC)ccc4OC)c3CO2)cc1 (stereo unspecified), the RP-LC retention time rises from 643 s to 926 s.

First: COc1ccc(CNC(=O)NCc2cccnc2OC)cc1
Second: COc1ccc(Cn2cccc2-c2nc(C)no2)cc1
The RP-LC retention time of the first is lower: 691 s for the first, 1020 s for the second.

Going from Cc1noc(-c2ccnc(-n3ncc(C(=O)N4CCSCC4)c3C)c2)n1 to Cc1ccc(-c2nc(-c3ccc4nnc(C)n4c3)no2)cc1C, the RP-LC retention time rises from 785 s to 1130 s.

First: O=C(NCC1CCOCC1)Nc1ccccc1Br
Second: CCc1ccccc1NC(=O)N1CCC(c2cc(=O)n3nccc3n2C)CC1
The RP-LC retention time of the first is higher: 740 s for the first, 663 s for the second.

Compared with O=S(=O)(c1ccccc1C(F)(F)F)N1CCc2nc(-c3ccccc3)ncc2C1, CC(C)CN(CC(C)C)c1nc(-c2ccccc2)nc2ccccc12 is lower in RP-LC retention time: 1110 s for the first, 951 s for the second.

First: Cc1ccnc(Nc2ccc(NCCNS(=O)(=O)Cc3ccccc3)nn2)c1
Second: Cc1cccc(-c2ncccc2CNS(=O)(=O)Cc2cccc(F)c2)c1
The RP-LC retention time of the first is lower: 570 s for the first, 774 s for the second.

Compared with Cc1ccc(N2CC(c3noc(-c4cccs4)n3)CC2=O)cc1 (stereo unspecified), Cc1ccc(N2CCC(NC(=O)NC(C)(C)C)C2=O)cc1 (stereo unspecified) is lower in RP-LC retention time: 946 s for the first, 761 s for the second.

Going from O=C(Cn1ccnc1)N1CCCC(OCc2nc(C3CC3)no2)C1 (stereo unspecified) to O=C(CC1=CCCCC1)N1CC(F)(F)C[C@H]1c1nc(C2CC2)no1, the RP-LC retention time rises from 580 s to 1000 s.

Compared with CCCNc1c(C(=O)OC)c(=O)[nH]c2ccc(F)cc12, COC(=O)C1=CN(c2ccc(F)c(Cl)c2)c2ccc(F)cc2S1(=O)=O is higher in RP-LC retention time: 699 s for the first, 929 s for the second.

First: Cc1ccc(CCNC(=O)Cn2nc(-n3cccc3)c3c(C)cc(C)nc32)cc1
Second: Cc1ccc(N2CN(CC(=O)NCCC3=CCCCC3)S(=O)(=O)c3cccnc32)cc1
The RP-LC retention time of the first is higher: 1070 s for the first, 1050 s for the second.

Going from Cc1ccc(-c2cc(C(=O)O)n(C)c2)cc1 to CCCc1cc(C2CCCN2C(=O)Nc2ccc(C)cc2)no1 (stereo unspecified), the RP-LC retention time rises from 856 s to 946 s.

Going from CC(NC(=O)Cn1c(C(F)(F)F)nc2ccccc21)c1ccc2c(c1)OCCCO2 (stereo unspecified) to CC1CCCN(CCCNC(=O)Cn2c3ccccc3c3cnn(C)c(=O)c32)C1 (stereo unspecified), the RP-LC retention time falls from 842 s to 612 s.

Compared with O=C(CN1C(=O)CCc2cc(S(=O)(=O)N3CCCCC3)ccc21)NC1CCCc2ccccc21 (stereo unspecified), CN(C)c1ccc(C(CNS(C)(=O)=O)N2CCc3ccccc3C2)cc1 (stereo unspecified) is lower in RP-LC retention time: 935 s for the first, 573 s for the second.

Going from Cc1cc(C)c(C(=O)N2CCC(CC(=O)NCc3cccc(Br)c3)CC2)[nH]1 to COCCC1CCN(C(=O)CN(C)C(=O)c2n[nH]c3ccccc23)CC1, the RP-LC retention time falls from 820 s to 661 s.

First: CCCn1cnnc1C1CCN(Cc2cccc(OCC)c2)CC1
Second: CCOc1cccc(CN2C(=O)C3(CCOCC3)CC2c2nnnn2C(C)(C)C)c1 (stereo unspecified)
The RP-LC retention time of the first is lower: 601 s for the first, 820 s for the second.

Going from c1ccc(CN2CCCC(OCc3nc(-c4ccncc4)no3)C2)nc1 (stereo unspecified) to Cc1c(Cl)cccc1NC(=O)N1C[C@H](c2nc(-c3ccncc3)no2)[C@@H](C)C1, the RP-LC retention time rises from 577 s to 827 s.

Going from Cc1ccc(/C=C/c2nc(-c3ccc4c(c3)oc(=O)n4C(C)C)no2)o1 to CC(=O)NC(C)c1nc(-c2ccc(Cl)cc2)no1 (stereo unspecified), the RP-LC retention time rises from 659 s to 777 s.

Compared with CC(C)NC[C@H](O)COc1cccc2[nH]ccc12, CCCn1nnc(NCc2ccc(-c3cccc(Cl)c3C)o2)n1 is higher in RP-LC retention time: 603 s for the first, 1130 s for the second.

First: COC(=O)c1ccc(NC(=O)N2[C@H]3CC[C@@H]2c2cnc(C)nc2C3)cc1
Second: Cc1ccc2oc(C(=O)Nc3ccc(-n4cnnn4)cc3)c(C)c2c1
The RP-LC retention time of the first is lower: 653 s for the first, 933 s for the second.

Compared with O=c1c2sccc2n(Cc2nc(-c3ccc(Cl)c(F)c3)no2)c(=O)n1CCc1ccccc1, O=C(Nc1ccc(OCc2nnc(-c3ccc(F)cc3)o2)cc1)c1cccnc1 is lower in RP-LC retention time: 1280 s for the first, 720 s for the second.

Going from COc1ccc2c(c1)C1(CCN(C(=O)c3ccccc3F)C1)C(=O)N2 (stereo unspecified) to COc1cccc(NC(=O)C2CCN(S(C)(=O)=O)c3ccccc3O2)c1 (stereo unspecified), the RP-LC retention time rises from 703 s to 810 s.

First: O=C(NC1CCN(c2cc(-c3ccc(F)cc3)[nH]n2)C1)c1ccccc1Br (stereo unspecified)
Second: CC(C)c1nccn1C1CN(C(=O)C2CCCCC2)C1
The RP-LC retention time of the first is higher: 668 s for the first, 594 s for the second.

Going from CC(C)(C)C1CCC(OCC(O)CN2CCN(CCO)CC2)CC1 (stereo unspecified) to NC(=O)COC1CCC12CCN(C(=O)C1CCCCCC1)CC2 (stereo unspecified), the RP-LC retention time rises from 581 s to 740 s.

CCn1ccc(C(=O)N2CCC(N3C(=O)C(O)C34CCCCC4)CC2)n1 (stereo unspecified) gave an RP-LC retention time of 603 s.

From the METLIN SMRT retention time set (Domingo-Almenara et al. 2019)
